Literature values as cited in patent publication US20230404944A1, “CANNABINOID ENCAPSULATION TECHNOLOGY” (ZELIRA THERAPEUTICS OPERATIONS PTY LTD, priority 2020, published 2023).

**Q.** With `C=C(C)[C@@H]1CCC(C)=C[C@H]1c1c(O)cc(CCCCC)cc1O` [CBD, cannabidiol] as the molecule, how does the “Oral bioavailability in plasma” value (plasma) read?
**A.** The value was “approximately 6%”.

**Q.** And the “Oral bioavailability in tissues” value (tissues)?
**A.** The value was ~1%.
